This note sets out measurements from ChEMBL document CHEMBL3507680, “University of Dundee, Gates Library screen for HepG2 cell viability”.

This data set can be described thus: Human HepG2 cell viability assay in 384 well format. Type of data set: toxicity, cell-based. Details: dose 125 nL, time 70.5 hour; cytotoxicity at 70.5 h: concentration not given beside the values. The settings on record: HepG2 cells, read-out: Inhibition.

Structures are written as SMILES.

On to `OC[C@@H]1[C@@H](c2ccccc2)CN2CCN(c3ccccn3)C[C@H]12`, for which the cytotoxicity at 70.5 h was -3.64%.
As to `OC[C@@H]1[C@H]2CN(c3ccccn3)CCN2C[C@H]1c1ccccc1`, the cytotoxicity at 70.5 h is -1.78%.
Regarding `O=S1(=O)N(c2ccccc2)C[C@H](O)[C@]12CCNC2`, the cytotoxicity at 70.5 h is -2.92%.
Turning to `CN1CC[C@H](N(Cc2ccccc2)CC2CC2)C[C@H](O)C1`, the cytotoxicity at 70.5 h worked out at 9.84%.
To `CN1C[C@H](O)[C@]2(CCN(C(=O)NCc3ccccc3)C2)S1(=O)=O` belongs -8.64%; to `O=S1(=O)[C@@H](c2ccccc2)[C@H](CO)CN1c1ccccc1`, -4.62%; to `CC(C)N1C[C@@H](CO)[C@H](c2ccccc2)S1(=O)=O`, -3.46%.
As for `CCCC(O)CN1CCC(=O)N(CC2CC2)Cc2cc3c(cc21)OCO3` (stereo not given), the cytotoxicity at 70.5 h turned out to be 25%.
Under `CN1Cc2cc(F)ccc2N(CC(C)(C)O)CCC1=O` stands 8.74%; under `O=C(Cc1ccccc1)N1CC(=O)N(Cc2ccco2)CC(O)C1` (stereo not given), 0.111%; under `Cc1ccc(C(=O)N2CC(=O)N(Cc3ccco3)CC(O)C2)cc1` (stereo not given), -2.64%.
With `CC(C)CN1CC(O)CN(S(=O)(=O)c2ccc(F)cc2)CC1=O` (stereo not given), the cytotoxicity at 70.5 h is -9.29%.
With `CC(C)(C)C(=O)N1CC(=O)N(Cc2ccco2)CC(O)C1` (stereo not given), the cytotoxicity at 70.5 h was -4.89%.
Take `CC(C)CC(=O)N1CC(=O)N(Cc2ccco2)CC(O)C1` (stereo not given): the cytotoxicity at 70.5 h was 8.54%.
To `CCCC1CN(CCOC)C(=O)c2cccnc2O1` (stereo not given) belongs -8.12%; to `CCOC(=O)N1[C@@H](c2ccco2)[C@@H](C(=O)NC)C[C@]12CCCCNC2=O`, 15.2%.
Take `CC(C)(C)CC(=O)N1[C@@H](c2ccco2)[C@@H](CO)C[C@]12CCCCNC2=O`: the cytotoxicity at 70.5 h was -5.67%.
Under `CCOC(=O)CN1C(=O)CN(S(C)(=O)=O)CCC(OC)c2ccccc21` (stereo not given) stands -8.31%; under `CNC(=O)CN1C(=O)CN(C(=O)COC)CCC(OC)c2ccccc21` (stereo not given), 15.1%.
Under `OCC1N(Cc2ccc(F)cc2)[C@H]2CC[C@]1(O)CC2` (stereo not given in full) stands -7.04%; under `O=C(c1ccco1)N1C(CO)[C@]2(O)CC[C@H]1CC2` (stereo not given in full), -3.21%; under `O=C(Nc1ccccc1)N1C(CO)[C@]2(O)CC[C@H]1CC2` (stereo not given in full), 15%.
Under `COCC1N(C(=O)c2ccco2)[C@H]2CC[C@]1(O)CC2` (stereo not given in full) stands -2.24%.
In the case of `COCC1N(C(=O)Nc2ccccc2)[C@H]2CC[C@]1(O)CC2` (stereo not given in full), the cytotoxicity at 70.5 h was -7.67%.
Under `COCC1N(S(=O)(=O)c2cn(C)cn2)[C@H]2CC[C@]1(O)CC2` (stereo not given in full) stands -7.28%; under `CCOC(=O)C1CC2(CCCCC2)N2CCC(=O)N12` (stereo not given), -4.11%; under `O[C@]12CC[C@H](CC1)N(Cc1ccc(F)cc1)C2CN1CCOCC1` (stereo not given in full), -7.54%.
For the compound `CN1CCCC1c1ccc(C(=O)Nc2c3c(nn2C)CCC3)s1` (stereo not given), the cytotoxicity at 70.5 h was -13%.
`CN(CCO)Cc1nnc(C2CCN(C(=O)c3cc[nH]c3)CC2)n1C`: the cytotoxicity at 70.5 h is -1.84%.
Regarding `CSCCNc1ccc(C(=O)N(C)Cc2ccc3ccccc3n2)cn1`, the cytotoxicity at 70.5 h is -12.8%.
With `Cc1cccc(CN2CCCC(O)(CNCc3ncccc3C)C2=O)c1` (stereo not given), the cytotoxicity at 70.5 h is -7.55%.
As for `Cc1cc2nc(C(C)C)cc(NCc3ccncc3)n2n1`, the cytotoxicity at 70.5 h was -7.5%.
Turning to `Cc1ccc(-c2nnc(CN3CCCCC3Cn3cncn3)o2)cc1` (stereo not given), the cytotoxicity at 70.5 h is -12.6%.
For `Cc1ccc(C)c(CS(=O)(=O)CC(=O)NCCCOC(C)C)c1`, the cytotoxicity at 70.5 h is -4.92%.
Consider `Cc1ccc(CS(=O)(=O)CC(=O)NCCCOC(C)C)cc1`, for which the cytotoxicity at 70.5 h is -10.8%.
For the compound `CC(C)OCCCNC(=O)CS(=O)(=O)Cc1ccc(Cl)cc1`, the cytotoxicity at 70.5 h was 13%.
Under `CC(Cn1cccn1)NC(=O)Nc1ccccn1` (stereo not given) stands -8.38%; under `CC(NC(=O)NCc1ccoc1)c1ccc2c(c1)CC(=O)N2` (stereo not given), -4.73%; under `O=C(CS(=O)(=O)Cc1ccccc1)NC1CCCCNC1=O` (stereo not given), 12.6%.
`Cc1csc(CNC(=O)NC(C)c2ccc3c(c2)CCC(=O)N3)n1` (stereo not given): the cytotoxicity at 70.5 h was -5.74%.
On to `COc1ccccc1CC(=O)NS(=O)(=O)c1ccc(NC(C)=O)cc1`, for which the cytotoxicity at 70.5 h is -6.22%.
With `COC(=O)C(NC(=O)CC(C)C)c1cc(F)ccc1F` (stereo not given), the cytotoxicity at 70.5 h is -1.44%.
To `c1coc(-c2nnc(CN3CCCC3Cn3cncn3)o2)c1` (stereo not given) belongs -1.88%; to `COc1ccc(-c2nnc(CN3CCCC3Cn3cncn3)o2)cc1` (stereo not given), 15.3%.
For the compound `CCCC(=O)NC(C(=O)OC)c1cc(F)ccc1F` (stereo not given), the cytotoxicity at 70.5 h was -3.96%.
Turning to `CNc1cc2c(nn1)CCN(C(=O)c1cccc3c1OCCO3)C2`, the cytotoxicity at 70.5 h is -0.154%.
For the compound `c1cnnc(NCC2CN(CC3CCOCC3)CCO2)c1` (stereo not given), the cytotoxicity at 70.5 h is -5.6%.
For the compound `O=C(CN1CCOC(CNc2cccnn2)C1)N1CCCCC1` (stereo not given), the cytotoxicity at 70.5 h is -6.36%.
In the case of `OC1(CN2CCOC(CNc3cccnn3)C2)CCCCC1` (stereo not given), the cytotoxicity at 70.5 h worked out at 0.208%.
Take `O=C(c1cccn1Cc1cccs1)N1CCC(C(=O)N2CCCC2)CC1`: the cytotoxicity at 70.5 h was -5.45%.
As to `NC(=O)CC1CCN(C(=O)c2cccn2Cc2cccs2)CC1`, the cytotoxicity at 70.5 h turned out to be 3.87%.
On to `O=C(c1cccn1Cc1cccs1)N1CCSCC1`, for which the cytotoxicity at 70.5 h came to 25%.
To `Cn1c(CN2CCOC(CNc3cccnn3)C2)nnc1C1CC1` (stereo not given) belongs -2.31%.
Consider `COc1ccccc1CC(=O)NS(=O)(=O)c1ccc(C#N)cc1`, for which the cytotoxicity at 70.5 h was 4.13%.
For `COc1ccc(Cl)cc1CC(=O)NS(=O)(=O)c1ccc(C(N)=O)cc1`, the cytotoxicity at 70.5 h was -3.68%.
For `CCN(CC)S(=O)(=O)c1cccc(C(=O)N(C)Cc2ccsc2)c1`, the cytotoxicity at 70.5 h was found to be 14.5%.
As for `CCOCC(=O)N1CSCC1C(=O)N(C)Cc1ccco1` (stereo not given), the cytotoxicity at 70.5 h was 15.7%.
To `CN(Cc1cnn(C)c1)C(=O)CN1CCCC(Cn2cncn2)C1` (stereo not given) belongs 48%.
As for `CCc1nc2n(n1)CC(NCc1cc(OC)c3c(c1)OCCO3)CC2` (stereo not given), the cytotoxicity at 70.5 h is -5.82%.
To `Cc1cccc(C(=O)N2CCCCC2c2nc(C)cs2)n1` (stereo not given) belongs -12.3%; to `CC(=O)N1CCCN(C(=O)c2cnn(C(C)(C)C)c2C)CC1`, -10.1%.
Turning to `CN(Cc1ccsc1)C(=O)c1cccc(S(=O)(=O)NCC2CCCO2)c1` (stereo not given), the cytotoxicity at 70.5 h was found to be 15.1%.
In the case of `CN(Cc1ccsc1)C(=O)c1ccc(S(=O)(=O)NC(C)(C)C)cc1`, the cytotoxicity at 70.5 h is -7.83%.
Under `CCc1c(C(=O)N2CCNC(=O)C2)cnn1C(C)(C)C` stands -6.91%; under `Cc1nnc(NC(=O)NCc2ccc(OC(C)C)nc2)s1`, 20.6%; under `Cc1nnc(NC(=O)NCc2ccoc2)s1`, -2.74%.
As to `OCCN1CCN(Cc2coc(-c3cccc(Cl)c3)n2)CC1`, the cytotoxicity at 70.5 h turned out to be 24.5%.
Take `CCOCCCn1c(NC(=O)c2cc(C)on2)nc2ccccc21`: the cytotoxicity at 70.5 h worked out at 9.94%.
Under `Cn1cnnc1C1CCCN(C(=O)NCCCn2cccn2)C1` (stereo not given) stands -2.61%; under `CCc1nnc2n1CCN(CCC(=O)Nc1sccc1C#N)C2`, -3.22%.
On to `CC(C)c1nnc2n1CCN(CCC(=O)Nc1sccc1C#N)C2`, for which the cytotoxicity at 70.5 h is -1.15%.
`OCCN1CCN(Cc2coc(-c3ccccc3)n2)CC1`: the cytotoxicity at 70.5 h was -4.94%.
Turning to `CN(Cc1ccco1)C(=O)CN1CCOC(Cn2cncn2)C1` (stereo not given), the cytotoxicity at 70.5 h was -3.13%.
In the case of `Cc1cnc(C(=O)N2CCCCC2c2nc(C)cs2)cn1` (stereo not given), the cytotoxicity at 70.5 h was -0.288%.
Under `Cc1csc(CNC(=O)N2CCCC(c3nncn3C)C2)n1` (stereo not given) stands -4.57%.
Under `CCc1c(C(=O)N2CCN(c3cnccn3)CC2)cnn1C(C)(C)C` stands 20.7%; under `CC(C(=O)NCCCN1CCOCC1)n1cncn1` (stereo not given), 6.37%.
With `Cc1cnn(C2CN(CC(=O)NCCCc3ccccc3)C2)c1`, the cytotoxicity at 70.5 h came out at 24.2%.
Take `Cc1nc(CN(C)C2CCCN(Cc3noc(C4CC4)n3)C2)oc1C` (stereo not given): the cytotoxicity at 70.5 h is 14.4%.
`Cc1cc(CN(C)C2CCCN(Cc3noc(C4CC4)n3)C2)on1` (stereo not given): the cytotoxicity at 70.5 h is -9.71%.
In the case of `CC(C(=O)NCCN1CCCCC1)n1cncn1` (stereo not given), the cytotoxicity at 70.5 h is -12.5%.
In the case of `Cn1cnc2c1CCN(Cc1csc(Cc3ccccc3)n1)C2`, the cytotoxicity at 70.5 h is -9.86%.
Consider `CC(C)c1cc(NC(=O)CN2CCCC2Cn2cncn2)on1` (stereo not given), for which the cytotoxicity at 70.5 h is -9.97%.
For `CCc1ncncc1C(=O)N1CCCN(Cc2ccc(C#N)cc2)CC1`, the cytotoxicity at 70.5 h is -10.9%.
For `Cc1noc(CN(C)C2CCCN(Cc3noc(C4CC4)n3)C2)n1` (stereo not given), the cytotoxicity at 70.5 h is -10.7%.
Under `O=C(Cc1cccc(F)c1)NCCNc1ncccn1` stands -4.32%; under `CNS(=O)(=O)c1ccc(C)c(C(=O)NCCNc2ncccn2)c1`, -14.9%; under `CC(C(=O)NCCCN1CCN(c2ccccc2)CC1)n1cncn1` (stereo not given), -15.9%.
`CN(Cc1cccc(F)c1)Cc1nc2c(cnn2C)c(=O)[nH]1`: the cytotoxicity at 70.5 h came to 5.31%.
On to `CCC(C)NC(=O)CCc1ccc(OCC(F)(F)F)c(OC)c1` (stereo not given), for which the cytotoxicity at 70.5 h was -14.7%.
With `COc1cc(CCC(=O)NC2CCN(C)CC2)ccc1OCC(F)(F)F`, the cytotoxicity at 70.5 h was -7.75%.
As for `CCC(C)(C)NC(=O)CN1C=Nc2ccccc2S1(=O)=O`, the cytotoxicity at 70.5 h is -5.89%.
As for `CC(C)CCC(C)NC(=O)CN1C=Nc2ccccc2S1(=O)=O` (stereo not given), the cytotoxicity at 70.5 h was -8.83%.
As for `COc1cc(CCC(=O)NC(C)(C)C)ccc1OCC(F)(F)F`, the cytotoxicity at 70.5 h is -9.72%.
For `CC(C(=O)NCCN1CCOCC1)n1cncn1` (stereo not given), the cytotoxicity at 70.5 h was -11.7%.
With `Cc1cc(NC(=O)CN2CCCCC2Cn2nc(C)nc2C)on1` (stereo not given), the cytotoxicity at 70.5 h was -8.71%.
Take `Cc1cnn(C2CN(CC(=O)NCCc3cccs3)C2)c1`: the cytotoxicity at 70.5 h was -12.3%.
As to `Cn1c(C2CC2)nc2c1CCN(Cc1nc(Cc3ccccc3)no1)C2`, the cytotoxicity at 70.5 h was -12.9%.
For the compound `COc1cc(C(C)=O)ccc1OCCNCc1ccco1`, the cytotoxicity at 70.5 h is -3.22%.
`CNC(C(=O)OC)c1cc(F)ccc1F` (stereo not given): the cytotoxicity at 70.5 h is -3.37%.
